We go through two substances from publication PMC5971065 (ACS infectious diseases, 2017).

The test system of one data set is Mtb H37Rv. The class given is cell-based, Mycobacterium tuberculosis.
Data set [1] concerns A549, HEK-293, and J774A.1 cells. The data set can be described thus: Mammalian cytotoxicity. The conditions noted are these: positive control treatment.

kanamycin A: in the data set with Mtb H37Rv, the “H37Rv MICKAN” value was 1.25 µg/mL.

Take Triton X-100: in data set [1], the cytotoxicity entry is “most of the cells killed”.
